According to PubChem BioAssay (NCI):
“And” between values parts separate entries of the source, which are not always exact repeats. Equal entries are not always repeated.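 Assay format: 96-well plates, 48-hour exposure. GI50 = concentration required for 50% inhibition of growth. TGI denotes the concentration required for complete inhibition of growth.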

How the values were obtained:
Assay in all cases: NCI tumour cell line growth inhibition, 48 h
M14 melanoma = test system: M14 melanoma
ACHN renal = test system: ACHN renal
SR leukemia = test system: SR leukemia
UO-31 renal = test system: UO-31 renal
COLO 205 colon = test system: COLO 205 colon
MDA-MB-231 breast = test system: MDA-MB-231 breast
HCT-116 colon = test system: HCT-116 colon
OVCAR-4 ovarian = test system: OVCAR-4 ovarian
NCI/ADR-RES ovarian = test system: NCI/ADR-RES ovarian
HCC-2998 colon = test system: HCC-2998 colon

Structure (SMILES)	GI50 (M14 melanoma)	TGI (M14 melanoma)	GI50 (ACHN renal)	TGI (ACHN renal)	GI50 (SR leukemia)	TGI (SR leukemia)	GI50 (UO-31 renal)	TGI (UO-31 renal)	GI50 (COLO 205 colon)	TGI (COLO 205 colon)	GI50 (MDA-MB-231 breast)	TGI (MDA-MB-231 breast)	GI50 (HCT-116 colon)	TGI (HCT-116 colon)	GI50 (OVCAR-4 ovarian)	TGI (OVCAR-4 ovarian)	GI50 (NCI/ADR-RES ovarian)	TGI (NCI/ADR-RES ovarian)	GI50 (HCC-2998 colon)	TGI (HCC-2998 colon)
O=C(N/N=C\c1cc(Br)ccc1O)c1ccncc1	2.45 µM	26 µM	2.37 µM	> 100 µM	2.45 µM	> 100 µM	1.76 µM	> 100 µM	1.23 µM	16.8 µM	5.88 µM	> 100 µM	1.8 µM	> 100 µM	0.814 µM	33.3 µM	1.42 µM	34.5 µM	1.81 µM	> 100 µM
O=C(Nc1cccc(Cl)c1)c1cc2ccccc2cc1O	3.67 µM and 2.24 µM	> 100 µM	2.55 µM and 0.609 µM	> 100 µM	3.9 µM and 3.79 µM	> 100 µM	0.34 µM	> 100 µM	19.1 µM and 13.6 µM	> 100 µM and 79 µM	4.65 µM and 2.37 µM	> 100 µM and 15.4 µM	1.68 µM and 0.828 µM	> 100 µM and 21.1 µM	3.39 µM and 2.32 µM	> 100 µM	2.62 µM and 2.06 µM		3.9 µM and 3.39 µM	> 100 µM
N#CC1(C2SCCS2=O)C2=C(C(=O)c3ccccc3C2=O)N2CCCC21 (stereo unspecified)		2.77 µM		16.2 µM		20.7 µM		14.2 µM		5.71 µM		9.21 µM		5.56 µM		4.09 µM		10.2 µM		11.8 µM
O/N=C\c1c(O)ccc2ccccc12		> 100 µM		70.1 µM		82.1 µM				> 100 µM		> 100 µM		> 100 µM				> 100 µM		> 100 µM
COc1ccc(/C=c2/sc3n(c2=O)C(c2ccc(OC)c(OC)c2)C2=C(N=3)c3cc(F)ccc3OC2)cc1 (stereo unspecified)	36.9 µM	> 100 µM	19.3 µM	65.7 µM	60.9 µM	> 100 µM	27.6 µM	> 77.7 µM	30.1 µM	> 57.1 µM	14.8 µM	> 75.1 µM	17.4 µM	> 100 µM	> 23.2 µM	> 74.1 µM	18.7 µM	87.4 µM		21.2 µM
O=C(CN(C1CCCCC1)C1CCCCC1)Nc1ccc(S(=O)(=O)c2ccc(NC(=O)CN(C3CCCCC3)C3CCCCC3)cc2)cc1	0.373 µM	1.69 µM	1.17 µM	2.4 µM	0.224 µM	1.52 µM	1.24 µM	2.56 µM	0.28 µM	0.841 µM	0.432 µM	1.63 µM	0.158 µM	0.396 µM	0.942 µM	2.58 µM	0.89 µM	6.31 µM	1.7 µM	3.22 µM
CCN(CC)CCNCC(=O)Oc1ccc(/C=C/C(=O)CC(=O)/C=C/c2ccc(OC(=O)CNCCN(CC)CC)c(OC)c2)cc1OC	2.82 µM	11 µM	5.28 µM	20.8 µM	3.14 µM	> 100 µM	3.48 µM	11 µM	5.06 µM	22.8 µM	4.94 µM	29.3 µM	2.81 µM	12.3 µM	8.67 µM	> 100 µM	5.73 µM	> 100 µM	2.1 µM	4.36 µM
COc1cc2cn3c4ccc(O)cc4[nH]c(=O)c3c2cc1OC	0.0206 µM	1.64 µM	0.0361 µM	1.61 µM	0.0173 µM	1.79 µM	0.0398 µM	1.64 µM	0.0201 µM	0.429 µM	0.0516 µM	1.79 µM	< 0.01 µM	1.66 µM	0.0594 µM	2.11 µM	0.0883 µM	2.01 µM	0.0307 µM	1.61 µM
NC(=O)C(=CNc1nc(-c2ccc(Cl)c(Cl)c2)cs1)C(N)=O	> 100 µM	> 100 µM	> 100 µM	> 100 µM	38.7 µM	> 100 µM	12.1 µM	> 100 µM	> 100 µM	> 100 µM	60.8 µM	> 100 µM	> 100 µM	> 100 µM	62.4 µM	> 100 µM	> 100 µM	> 100 µM	> 100 µM	> 100 µM
O=C(O)c1cc(O)c2c(c1)C(C1c3cc(C(=O)O)cc(O)c3C(=O)c3c(OC4OC(CO)C(O)C(O)C4O)cccc31)c1cccc(OC3OC(CO)C(O)C(O)C3O)c1C2=O (stereo unspecified)	> 100 µM	> 100 µM	> 100 µM	> 100 µM	> 100 µM	> 100 µM	> 100 µM	> 100 µM	> 100 µM	> 100 µM	> 100 µM	> 100 µM	> 100 µM	> 100 µM	> 100 µM	> 100 µM	> 100 µM	> 100 µM	> 100 µM	> 100 µM
CC(=O)Oc1ccc(Nc2c3ccccc3nc3ccccc23)cc1	1.46 µM	3.7 µM	0.382 µM	2.02 µM	0.355 µM	> 100 µM	0.693 µM	2.59 µM	0.861 µM	2.33 µM	1.7 µM	6.23 µM	0.613 µM	4.11 µM	1.74 µM	5.93 µM	2.25 µM	12.1 µM	1.97 µM	14.3 µM
Nc1nc(Nc2ccccc2)c2ncn(Cc3cc4c(cc3Br)OCO4)c2n1			0.0799 µM	30.4 µM	0.0371 µM	> 100 µM	0.129 µM	> 100 µM	0.0716 µM	0.375 µM	0.0497 µM	> 51.9 µM	0.046 µM	24.9 µM	0.326 µM	55.1 µM	0.0565 µM	> 37.5 µM	0.205 µM	> 32.7 µM
N#CC1Nc2ccccc2[C@@H](O)C1O (stereo partly specified)		> 100 µM		> 100 µM		> 100 µM				> 100 µM		> 100 µM		> 100 µM		> 100 µM		> 100 µM		> 100 µM
COc1ccc(C2C(C#N)=C(N)OC3=C2COc2ccc(F)cc23)cc1OC (stereo unspecified)	40.1 µM	> 100 µM	12.3 µM	37.2 µM	9.09 µM	> 100 µM	43.9 µM	> 100 µM	19.1 µM	> 100 µM	14.3 µM	58.8 µM	12 µM	36.1 µM	24.9 µM	> 100 µM	19.4 µM	57.3 µM		
